Target: recombinant DYRK1A kinase (Homo sapiens (Human), UniProt Q13627)
Assay: DYRK1A kinase assay (Ser/Thr 18 peptide Z-lyte FRET assay)
Type: biochemical
Conditions: DYRK1A 0.25 μg/mL, ATP 15 μM, Ser/Thr peptide 18 4 μM; one hour at room temperature; 11-point dose-response, duplicate
In short: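 Z-lyte FRET assay on Ser/Thr 18 peptide, kinase activity read as coumarin/fluorescein emission ratio; compounds incubated 1 h at room temperature, then development reagent 1 h, in duplicate. Phosphorylated and unphosphorylated peptide served as controls; IC50 by non-linear regression of dose-response curves.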

Row | Compound | IC50 [nM]
1 | CNc1nc(N[C@@H]2CCN(C(C)=O)CC2(F)F)nn2ccc(-c3ccc4nc(C)n(CC(F)F)c4n3)c12 [Compound 1023, (R)-1-(4-((5-(3-(2,2-Difluoroethyl)-2-methyl-3H-imidazo[4,5-b]pyridin-5-yl)-4-(methylamino)pyrrolo[2,1-f][1,2,4]triazin-2-yl)amino)-3,3-difluoropiperidin-1-yl)ethan-1-one] | 4.7
2 | CNc1nc(N[C@@H]2CCN(C(C)=O)CC2(F)F)nn2ccc(-c3ccc4nc(C)n(CC(F)(F)F)c4n3)c12 [Compound 1024, (R)-1-(3,3-Difluoro-4-((5-(2-methyl-3-(2,2,2-trifluoroethyl)-3H-imidazo[4,5-b]pyridin-5-yl)-4-(methylamino)pyrrolo[2,1-f][1,2,4]triazin-2-yl)amino)piperidin-1-yl)ethan-1-one] | 1
3 | CNc1nc(N[C@@H]2CN(C(C)=O)C[C@@H]2F)nn2ccc(-c3ccc4nnn(CC(F)F)c4n3)c12 [Compound 1026, 1-((3R,4S)-3-((5-(3-(2,2-Difluoroethyl)-3H-[1,2,3]triazolo[4,5-b]pyridin-5-yl)-4-(methylamino)pyrrolo[2,1-f][1,2,4]triazin-2-yl)amino)-4-fluoropyrrolidin-1-yl)ethan-1-one] | 0.3
4 | CNc1nc(N[C@H]2CC[C@](C)(O)CC2)nn2ccc(-c3ccc4nnn(CC(F)(F)F)c4n3)c12 [Compound 1031, (1r,4r)-1-Methyl-4-((4-(methylamino)-5-(3-(2,2,2-trifluoroethyl)-3H-[1,2,3]triazolo[4,5-b]pyridin-5-yl)pyrrolo[2,1-f][1,2,4]triazin-2-yl)amino)cyclohexan-1-ol] | 4
5 | CNc1nc(N[C@H]2CCN(C(C)=O)C[C@H]2F)nn2ccc(-c3ccc4nnn(CC(F)(F)F)c4n3)c12 [Compound 1032, 1-((3R,4S)-3-Fluoro-4-((4-(methylamino)-5-(3-(2,2,2-trifluoroethyl)-3H-[1,2,3]triazolo[4,5-b]pyridin-5-yl)pyrrolo[2,1-f][1,2,4]triazin-2-yl)amino)piperidin-1-yl)ethan-1-one] | 2.8
6 | CNc1nc(N[C@H]2CCN(C3COC3)C[C@H]2F)nn2ccc(-c3ccc4nnn(CC(F)(F)F)c4n3)c12 [Compound 1033, N^2-((3R,4S)-3-Fluoro-1-(oxetan-3-yl)piperidin-4-yl)-N^4-methyl-5-(3-(2,2,2-trifluoroethyl)-3H-[1,2,3]triazolo[4,5-b]pyridin-5-yl)pyrrolo[2,1-f][1,2,4]triazine-2,4-diamine] | 2

Now from value to compound:

Row | IC50 [nM] | Compound
7 | 10.1 | CNc1nc(NC2CCC(F)(F)CC2)nn2ccc(-c3ccc4nnn(CC(F)F)c4n3)c12 [Compound 1025, N^2-(4,4-Difluorocyclohexyl)-5-(3-(2,2-difluoroethyl)-3H-[1,2,3]triazolo[4,5-b]pyridin-5-yl)-N^4-methylpyrrolo[2,1-f][1,2,4]triazine-2,4-diamine]
8 | 0.6 | CNc1nc(N[C@@H]2CN(C)CC2(F)F)nn2ccc(-c3ccc4nnn(CC(F)F)c4n3)c12 [Compound 1027, (R)—N^2-(4,4-Difluoro-1-methylpyrrolidin-3-yl)-5-(3-(2,2-difluoroethyl)-3H-[1,2,3]triazolo[4,5-b]pyridin-5-yl)-N^4-methylpyrrolo[2,1-f][1,2,4]triazine-2,4-diamine]
9 | 1.3 | CNc1nc(N[C@@H]2CN(C3COC3)CC2(F)F)nn2ccc(-c3ccc4nnn(CC(F)F)c4n3)c12 [Compound 1028, (R)—N^2-(4,4-Difluoro-1-(oxetan-3-yl)pyrrolidin-3-yl)-5-(3-(2,2-difluoroethyl)-3H-[1,2,3]triazolo[4,5-b]pyridin-5-yl)-N^4-methylpyrrolo[2,1-f][1,2,4]triazine-2,4-diamine]
10 | 1.3 | CNc1nc(N[C@@H]2CCN(C(C)=O)CC2(F)F)nn2ccc(-c3ccc4nnn(CC(F)F)c4n3)c12 [Compound 1029, (R)-1-(4-((5-(3-(2,2-Difluoroethyl)-3H-[1,2,3]triazolo[4,5-b]pyridin-5-yl)-4-(methylamino)pyrrolo[2,1-f][1,2,4]triazin-2-yl)amino)-3,3-difluoropiperidin-1-yl)ethan-1-one]

Reference: US20240199649A1 (Biosplice Therapeutics, Inc., priority 2022, published 2024)
